Assay results as given in US8748415B2 (priority 2011, dated 2014).

Tested on: recombinant NL4-3 virus (Renilla luciferase in nef, Gag P373S)
Experiment: HIV cell culture assay (luciferase activity in MT-2 cells infected with NLRluc recombinant virus)
Format: cell-based
Conditions: NL43, MT-2 cells infected 4-5 days with NLRluc recombinant virus
Description: HIV cell culture assay—MT-2 cells and 293T cells were obtained from the NIH AIDS Research and Reference Reagent Program. MT-2 cells were propagated in RPMI 1640 media supplemented with 10% heat inactivated fetal bovine serum, […]. The 293T cells were propagated in DMEM media supplemented with 10% heat inactivated fetal bovine serum (FBS), 100 units/ml penicillin G and 100 μg/ml streptomycin. The proviral DNA clone of NL4-3 was obtained from the NIH AIDS Research and Reference Reagent Program. A recombinant NL4-3 virus, in which a section of the nef gene from NL4-3 was replaced with the Renilla luciferase gene, was used as a reference virus. In addition, residue Gag P373 was converted to P373S. Briefly, the recombinant virus was prepared by transfection of the altered proviral clone of NL4-3. Transfections were performed in 293T cells using LipofectAMINE PLUS from Invitrogen (Carlsbad, Calif.), according to manufacturer's instruction. The virus was titered in MT-2 cells using luciferase enzyme activity as a marker. Luciferase was quantitated using the Dual Luciferase kit from Promega (Madison, Wis.), with modifications to the manufacturer's protocol. The diluted Passive Lysis solution was pre-mixed with the re-suspended Luciferase Assay Reagent and the re-suspended Stop & Glo Substrate (2:1:1 ratio). Fifty (50) μL of the mixture was added to each aspirated well on assay plates and luciferase activity was measured immediately on a Wallac TriLux (Perkin-Elmer). Antiviral activities of inhibitors toward the recombinant virus were quantified by measuring luciferase activity in cells infected for 4-5 days with NLRluc recombinants in the presence serial dilutions of the inhibitor. Table 1 is the key for the data in Table 2.

| SMILES | EC50 (class symbol) | EC50 (numeric value) |
| --- | --- | --- |
| C=C(C)[C@@H]1CC[C@]2(CNC/C=C/CN3CCS(=O)(=O)CC3)CC[C@]3(C)[C@H](CC[C@@H]4[C@@]5(C)CC=C(c6ccc(C(=O)O)cc6)C(C)(C)[C@@H]5CC[C@]43C)[C@@H]12 [Example 73, 4-((1R,3aS,5aR,5bR,7aR,11aS,11bR,13aR,13bR)-3a-((((2E)-4-(1,1-dioxido-4-thiomorpholinyl)-2-buten-1-yl)amino)methyl)-1-isopropenyl-5a,5b,8,8,11a-pentamethyl-2,3,3a,4,5,5a,5b,6,7,7a,8,11,11a,11b,12,13,13a,13b-octadecahydro-1H-cyclopenta[a]chrysen-9-yl)benzoic acid] | < 100 nM |  |
| C=C(C)[C@@H]1CC[C@]2(CNC3(CN(CC)CC)CC3)CC[C@]3(C)[C@H](CC[C@@H]4[C@@]5(C)CC=C(c6ccc(C(=O)O)cc6)C(C)(C)[C@@H]5CC[C@]43C)[C@@H]12 [Example 52, 4-((1R,3aS,5aR,5bR,7aR,11aS,11bR,13aR,13bR)-3a-((1-((diethylamino)methyl)cyclopropylamino)methyl)-5a,5b,8,8,11a-pentamethyl-1-(prop-1-en-2-yl)-2,3,3a,4,5,5a,5b,6,7,7a,8,11,11a,11b,12,13,13a,13b-octadecahydro-1H-cyclopenta[a]chrysen-9-yl)benzoic acid] | < 100 nM |  |
| C=C(C)[C@@H]1CC[C@]2(CNCCC(=O)NC)CC[C@]3(C)[C@H](CC[C@@H]4[C@@]5(C)CC=C(c6ccc(C(=O)O)cc6)C(C)(C)[C@@H]5CC[C@]43C)[C@@H]12 [Example 127, 4-((1R,3aS,5aR,5bR,7aR,11aS,11bR,13aR,13bR)-5a,5b,8,8,11a-pentamethyl-3a-((3-(methylamino)-3-oxopropylamino)methyl)-1-(prop-1-en-2-yl)-2,3,3a,4,5,5a,5b,6,7,7a,8,11,11a,11b,12,13,13a,13b-octadecahydro-1H-cyclopenta[a]chrysen-9-yl)benzoic acid] | < 100 nM |  |
| C=C(C)[C@@H]1CC[C@]2(CNCCCN3CCS(=O)(=O)CC3)CC[C@]3(C)[C@H](CC[C@@H]4[C@@]5(C)CC=C(c6ccc(C(=O)NS(=O)(=O)N(C)C)cc6)C(C)(C)[C@@H]5CC[C@]43C)[C@@H]12 [Example 171, N-(dimethylsulfamoyl)-4-((1R,3aS,5aR,5bR,7aR,11aS,11bR,13aR,13bR)-3a-(((3-(1,1-dioxido-4-thiomorpholinyl)propyl)amino)methyl)-1-isopropenyl-5a,5b,8,8,11a-pentamethyl-2,3,3a,4,5,5a,5b,6,7,7a,8,11,11a,11b,12,13,13a,13b-octadecahydro-1H-cyclopenta[a]chrysen-9-yl)benzamide] | < 100 nM |  |
| C=C(C)[C@@H]1CC[C@]2(CNC(=O)NCC(=O)OCC)CC[C@]3(C)[C@H](CC[C@@H]4[C@@]5(C)CC=C(c6ccc(C(=O)O)cc6)C(C)(C)[C@@H]5CC[C@]43C)[C@@H]12 [Example 156, 4-((1R,3aS,5aR,5bR,7aR,11aS,11bR,13aR,13bR)-3a-((3-(2-ethoxy-2-oxoethyl)ureido)methyl)-5a,5b,8,8,11a-pentamethyl-1-(prop-1-en-2-yl)-2,3,3a,4,5,5a,5b,6,7,7a,8,11,11a,11b,12,13,13a,13b-octadecahydro-1H-cyclopenta[a]chrysen-9-yl)benzoic acid] | < 100 nM |  |
| C=C(C)[C@@H]1CC[C@]2(CNC(=O)CN3CCCC3=O)CC[C@]3(C)[C@H](CC[C@@H]4[C@@]5(C)CC=C(c6ccc(C(=O)O)cc6)C(C)(C)[C@@H]5CC[C@]43C)[C@@H]12 [Example 133, 4-((1R,3aS,5aR,5bR,7aR,11aS,11bR,13aR,13bR)-5a, 5b,8,8,11a-pentamethyl-3a-((2-(2-oxopyrrolidin-1-yl)acetamido)methyl)-1-(prop-1-en-2-yl)-2,3,3a,4,5,5a,5b,6,7,7a,8,11,11a,11b,12,13,13a,13b-octadecahydro-1H-cyclopenta[a]chrysen-9-yl)benzoic acid] | < 100 nM |  |
| C=C(C)[C@@H]1CC[C@]2(CNCCCN3CCCS3(=O)=O)CC[C@]3(C)[C@H](CC[C@@H]4[C@@]5(C)CC=C(c6ccc(C(=O)O)cc6)C(C)(C)[C@@H]5CC[C@]43C)[C@@H]12 [Example 40, 4-((1R,3aS,5aR,5bR,7aR,11aS,11bR,13aR,13bR)-3a-(((3-(1,1-dioxido-2-isothiazolidinyl)propyl)amino)methyl)-1-isopropenyl-5a,5b,8,8,11a-pentamethyl-2,3,3a,4,5,5a,5b,6,7,7a,8,11,11a,11b,12,13,13a,13b-octadecahydro-1H-cyclopenta[a]chrysen-9-yl)benzoic acid] | < 100 nM |  |
| C=C(C)[C@@H]1CC[C@]2(CNC(=O)Nc3ccc(C(=O)OC)cc3)CC[C@]3(C)[C@H](CC[C@@H]4[C@@]5(C)CC=C(c6ccc(C(=O)O)cc6)C(C)(C)[C@@H]5CC[C@]43C)[C@@H]12 [Example 160, 4-((1R,3aS,5aR,5bR,7aR,11aS,11bR,13aR,13bR)-3a-((3-(4-(methoxycarbonyl)phenyl)ureido)methyl)-5a,5b,8,8,11a-pentamethyl-1-(prop-1-en-2-yl)-2,3,3a,4,5,5a,5b,6,7,7a,8,11,11a,11b,12,13,13a,13b-octadecahydro-1H-cyclopenta[a]chrysen-9-yl)benzoic acid] |  | 260 nM |
| C=C(C)[C@@H]1CC[C@]2(CN[C@@H](CC(=O)OC)C(=O)OC)CC[C@]3(C)[C@H](CC[C@@H]4[C@@]5(C)CC=C(c6ccc(C(=O)O)cc6)C(C)(C)[C@@H]5CC[C@]43C)[C@@H]12 [Example 49, 4-((1R,3aS,5aR,5bR,7aR,11aS,11bR,13aR,13bR)-3a-(((S)-1,4-dimethoxy-1,4-dioxobutan-2-ylamino)methyl)-5a,5b,8,8,11a-pentamethyl-1-(prop-1-en-2-yl)-2,3,3a,4,5,5a,5b,6,7,7a,8,11,11a,11b,12,13,13a,13b-octadecahydro-1H-cyclopenta[a]chrysen-9-yl)benzoic acid] | < 100 nM |  |
| C=C(C)[C@@H]1CC[C@]2(CNCCc3ccc(S(N)(=O)=O)cc3)CC[C@]3(C)[C@H](CC[C@@H]4[C@@]5(C)CC=C(c6ccc(C(=O)O)cc6)C(C)(C)[C@@H]5CC[C@]43C)[C@@H]12 [Example 36, 4-((1R,3aS,5aR,5bR,7aR,11aS,11bR,13aR,13bR)-5a,5b,8,8,11a-pentamethyl-1-(prop-1-en-2-yl)-3a-((4-sulfamylphenethylamino)methyl)-2,3,3a,4,5,5a,5b,6,7,7a,8,11,11a,11b,12,13,13a,13b-octadecahydro-1H-cyclopenta[a]chrysen-9-yl)benzoic acid] | < 100 nM |  |
| C=C(C)[C@@H]1CC[C@]2(CNCCC(=O)N3CC(F)(F)C(F)(F)C3)CC[C@]3(C)[C@H](CC[C@@H]4[C@@]5(C)CC=C(c6ccc(C(=O)O)cc6)C(C)(C)[C@@H]5CC[C@]43C)[C@@H]12 [Example 106, 4-((1R,3aS,5aR,5bR,7aR,11aS,11bR,13aR,13bR)-5a,5b,8,8,11a-pentamethyl-3a-((3-oxo-3-(3,3,4,4-tetrafluoropyrrolidin-1-yl)propylamino)methyl)-1-(prop-1-en-2-yl)-2,3,3a,4,5,5a,5b,6,7,7a,8,11,11a,11b,12,13,13a,13b-octadecahydro-1H-cyclopenta[a]chrysen-9-yl)benzoic acid] | < 100 nM |  |
| C=C(C)[C@@H]1CC[C@]2(CNC(=O)CCC(=O)O)CC[C@]3(C)[C@H](CC[C@@H]4[C@@]5(C)CC=C(c6ccc(C(=O)O)cc6)C(C)(C)[C@@H]5CC[C@]43C)[C@@H]12 [Example 169, 4-((1R,3aS,5aR,5bR,7aR,11aS,11bR,13aR,13bR)-3a-((3-carboxypropanamido)methyl)-5a,5b,8,8,11a-pentamethyl-1-(prop-1-en-2-yl)-2,3,3a,4,5,5a,5b,6,7,7a,8,11,11a,11b,12,13,13a,13b-octadecahydro-1H-cyclopenta[a]chrysen-9-yl)benzoic acid] | < 100 nM |  |
| C=C(C)[C@@H]1CC[C@]2(CNC(=O)[C@H]3CCCN3)CC[C@]3(C)[C@H](CC[C@@H]4[C@@]5(C)CC=C(c6ccc(C(=O)O)cc6)C(C)(C)[C@@H]5CC[C@]43C)[C@@H]12 [Example 137, 4-((1R,3aS,5aR,5bR,7aR,11aS,11bR,13aR,13bR)-5a,5b,8,8,11a-pentamethyl-1-(prop-1-en-2-yl)-3a-(((R)-pyrrolidine-2-carboxamido)methyl)-2,3,3a,4,5,5a,5b,6,7,7a,8,11,11a,11b,12,13,13a,13b-octadecahydro-1H-cyclopenta[a]chrysen-9-yl)benzoic acid] | < 100 nM |  |
| C=C(C)[C@@H]1CC[C@]2(CNC(=O)CCC(=O)OC)CC[C@]3(C)[C@H](CC[C@@H]4[C@@]5(C)CC=C(c6ccc(C(=O)O)cc6)C(C)(C)[C@@H]5CC[C@]43C)[C@@H]12 [Example 170, 4-((1R,3aS,5aR,5bR,7aR,11aS,11bR,13aR,13bR)-3a-((4-methoxy-4-oxobutanamido)methyl)-5a,5b,8,8,11a-pentamethyl-1-(prop-1-en-2-yl)-2,3,3a,4,5,5a,5b,6,7,7a,8,11,11a,11b,12,13,13a,13b-octadecahydro-1H-cyclopenta[a]chrysen-9-yl)benzoic acid] | < 100 nM |  |
